Reference: the supplement of paper PMC7840683
Counter-ions that a name gives are not always drawn. ± gives the standard deviation of the averaged measurements.

Tested on: HepaRG
Assay: LDH release cytotoxicity, % of total lysis control; higher = more cytotoxic
Details: 48 h
Summary of the method: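 Percent cytotoxicity was scaled between on-plate vehicle and total lysis controls, then averaged over duplicate wells. The cells were single-lot HepaRG on collagen I-coated 96-well plates, exposed for 48 h to eight-point half-log test chemical series topping at 100 µM in serum-free induction medium with 0.5% DMSO. Total lysis wells got 0.1% Triton X, and LDH in 50 µL spent medium was read as resorufin fluorescence (CytoTox-ONE, Tecan Safire).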

SMILES	LDH release cytotoxicity (0.03162 µM) [%]	LDH release cytotoxicity (0.1 µM) [%]	LDH release cytotoxicity (0.3162278 µM) [%]	LDH release cytotoxicity (1 µM) [%]	LDH release cytotoxicity (3.16228 µM) [%]	LDH release cytotoxicity (10 µM) [%]	LDH release cytotoxicity (31.6228 µM) [%]	LDH release cytotoxicity (100 µM) [%]	other results
CN(C)C1C(=O)C(C(N)=O)C(=O)C2(O)C(=O)C3C(=O)c4c(O)cccc4C(C)(O)C3C(O)C12 (stereo unspecified) [Oxytetracycline hydrochloride]	-0.636 ± 0.43	-0.707 ± 0.15	-1.81 ± 0.59	-1.93 ± 0.75	-1.93 ± 0.7	-1.21 ± 0.36	-1.75 ± 1.1	-1.47 ± 0.43	
CC(C)(C)C(O)C(Cc1ccc(Cl)cc1)n1cncn1 (stereo unspecified) [Paclobutrazol]	-0.9138 ± 0.0047	-1.5 ± 0.066	-1.02 ± 0.15	-1.49 ± 1.2	-1.96 ± 1	-1.1 ± 0.17	-1.36 ± 0.77	-0.278 ± 0.059	
CCOP(=S)(OCC)Oc1ccc([N+](=O)[O-])cc1 [Parathion]	-1.76 ± 1.2	-2.78 ± 0.71	-2.35 ± 0.15	-2.92 ± 0.81	-3.21 ± 0.57	-2.39 ± 0.84	-1.78 ± 1.4	6.21 ± 0.097	
CCC(CC)Nc1c([N+](=O)[O-])cc(C)c(C)c1[N+](=O)[O-] [Pendimethalin]	-2.12 ± 0.66	-1.6 ± 0.38	-0.436 ± 0.39	0.269 ± 1.7	1.12 ± 0.21	0.875 ± 1.2	-2.25 ± 0.069	1.08 ± 1.2	
COc1cnc(OC)n2nc(NS(=O)(=O)c3c(OCC(F)F)cccc3C(F)(F)F)nc12 [Penoxsulam]	-0.317 ± 0.26	-1.82 ± 0.45	-1.21 ± 0.65	-1.71 ± 0.57	-0.488 ± 0.1	-0.309 ± 0.71	-1.02 ± 0.03	0.729 ± 0.1	
O=[N+]([O-])c1c(Cl)c(Cl)c(Cl)c(Cl)c1Cl [Pentachloronitrobenzene]	-1.26 ± 0.72	-1.49 ± 0.11	-1.32 ± 0.71	-1.55 ± 1.1	-0.822 ± 1.5	0.118 ± 0.74	0.34 ± 0.41	2.25 ± 1.1	
Oc1c(Cl)c(Cl)c(Cl)c(Cl)c1Cl [Pentachlorophenol]									LDH release cytotoxicity (0.0161276 µM): -0.227 ± 0.28%; LDH release cytotoxicity (0.051 µM): -1.03 ± 0.34%; LDH release cytotoxicity (0.161276 µM): -1.01 ± 0.69%; LDH release cytotoxicity (0.51 µM): -0.425 ± 0.32%; LDH release cytotoxicity (1.6127616 µM): 1.21 ± 0.41%; LDH release cytotoxicity (5.1 µM): 9 ± 4.7%; LDH release cytotoxicity (16.127616 µM): 41.1 ± 1.3%; LDH release cytotoxicity (51 µM): 40.65 ± 0.23%
Clc1nc(Cl)c(Cl)c(Cl)c1Cl [Pentachloropyridine]	-0.545 ± 0.73	-1.54 ± 0.25	-1.28 ± 1.4	-1.08 ± 1.1	-0.873 ± 0.5	-1.56 ± 0.52	-0.833 ± 0.26	0.716 ± 0.84	
CCCCCCCCCCCCCCC [Pentadecane]	-1.39 ± 0.28	-0.5079 ± 0.0034	-0.0639 ± 1.3	-1.27 ± 1.5	-0.987 ± 0.93	-0.163 ± 0.94	0.517 ± 0.29	1.96 ± 1.3	
OCC(CO)(CBr)CBr [Pentaerythritol dibromide]	-0.95 ± 0.41	-1.43 ± 0.67	-2.05 ± 0.21	-2.19 ± 0.11	-1.68 ± 0.31	-1.56 ± 0.1	-0.856 ± 0.31	0.8 ± 1.4	
OCC(CO)(CO)CO [Pentaerythritol]	-0.674 ± 0.59	-1.13 ± 0.089	-1.3 ± 0.092	-1.89 ± 1	-0.206 ± 1.4	-1.15 ± 0.98	-0.431 ± 0.65	0.764 ± 0.28	
N=C(N)c1ccc(OCCCCCOc2ccc(C(=N)N)cc2)cc1 [Pentamidine isethionate]									LDH release cytotoxicity (0.0276699 µM): -1.83 ± 0.92%; LDH release cytotoxicity (0.0875 µM): -2.81 ± 0.69%; LDH release cytotoxicity (0.276699 µM): -2.72 ± 0.49%; LDH release cytotoxicity (0.875 µM): -3.54 ± 0.15%; LDH release cytotoxicity (2.76699 µM): -2.52 ± 0.068%; LDH release cytotoxicity (8.75 µM): 19 ± 1.4%; LDH release cytotoxicity (27.6699 µM): 68.9 ± 1%; LDH release cytotoxicity (87.5 µM): 73.7 ± 2%
CCCCC=O [Pentanal]		-1.98 ± 0.44		-1.67 ± 0.41	-1.94 ± 0.15	-1.12 ± 0.47	-1.6 ± 0.26	0.803 ± 0.68	LDH release cytotoxicity (0.031623 µM): 0.98 ± 0.79%; LDH release cytotoxicity (0.316228 µM): -0.995 ± 0.23%
O=C(OCCCCCOC(=O)c1ccccc1)c1ccccc1 [Pentane-1,5-diyl dibenzoate]	-0.742 ± 0.19	-0.929 ± 0.18	-1.73 ± 0.77	-1.19 ± 0.099	-0.893 ± 0.47	-0.935 ± 0.24	-0.87 ± 0.083	-0.0778 ± 0.93	
CCCCCOC(C)=O [Pentyl acetate]	-10.9 ± 0.81	-10.5 ± 0.81	-10.2 ± 1.1	-11 ± 1.1	-10.3 ± 0.5	-10.9 ± 1.1	-10.3 ± 0.19	-10.02 ± 0.093	
O=C(O)C(F)(F)C(F)(F)C(F)(F)C(F)(F)C(F)(F)C(F)(F)C(F)(F)C(F)(F)C(F)(F)F [Perfluorodecanoic acid]		-0.365 ± 0.079		-0.768 ± 0.65	-7.62 ± 0.32	7.64 ± 0.07	8.49 ± 0.18	44.4 ± 6.8	LDH release cytotoxicity (0.031623 µM): 2.61 ± 0.091%; LDH release cytotoxicity (0.316228 µM): -0.683 ± 1.6%
O=C(O)C(F)(F)C(F)(F)C(F)(F)C(F)(F)C(F)(F)C(F)(F)F [Perfluoroheptanoic acid]	-2.26 ± 1	-2.63 ± 0.69	-3.62 ± 0.96	-3.63 ± 0.086	-2.82 ± 0.55	-2.95 ± 0.085	-2.44 ± 0.19	-2.23 ± 0.48	
O=C(O)C(F)(F)C(F)(F)C(F)(F)C(F)(F)C(F)(F)F [Perfluorohexanoic acid]	-0.915 ± 0.22	-0.436 ± 0.56	-1.48 ± 0.11	-1.3 ± 0.12	-1.58 ± 0.4	-0.342 ± 0.24	-0.769 ± 0.29	0.349 ± 0.23	
O=C(O)C(F)(F)C(F)(F)C(F)(F)C(F)(F)C(F)(F)C(F)(F)C(F)(F)C(F)(F)F [Perfluorononanoic acid]	-0.689 ± 0.78	-1.58 ± 0.88	-1.12 ± 0.43	-2.4 ± 0.24	-1.4 ± 0.082	-1.71 ± 0.11	-1.31 ± 0.22	27.5 ± 4.5	
NS(=O)(=O)C(F)(F)C(F)(F)C(F)(F)C(F)(F)C(F)(F)C(F)(F)C(F)(F)C(F)(F)F [Perfluorooctanesulfonamide]	-1.99 ± 0.3	-2.06 ± 0.39	-2.69 ± 0.94	-1.57 ± 1.4	-1.2 ± 0.054	-4.2 ± 0.27	41.1 ± 1.1	86.8 ± 13	
O=S(=O)(O)C(F)(F)C(F)(F)C(F)(F)C(F)(F)C(F)(F)C(F)(F)C(F)(F)C(F)(F)F [Perfluorooctanesulfonic acid]	-1.36 ± 0.32	-1.86 ± 0.5	-1.14 ± 0.19	-1.91 ± 0.49	-1.26 ± 0.23	-2 ± 0.026	-0.893 ± 0.12	19.6 ± 3.8	
O=C(O)C(F)(F)C(F)(F)C(F)(F)C(F)(F)C(F)(F)C(F)(F)C(F)(F)F [Perfluorooctanoic acid]	-0.867 ± 0.091	-1.32 ± 0.54	-1.53 ± 0.41	-1.76 ± 0.67	-0.724 ± 0.56	-1.14 ± 0.49	-1.29 ± 0.37	1.94 ± 1	
O=C(O)C(F)(F)C(F)(F)C(F)(F)C(F)(F)C(F)(F)C(F)(F)C(F)(F)C(F)(F)C(F)(F)C(F)(F)F [Perfluoroundecanoic acid]									LDH release cytotoxicity (0.0302 µM): -0.896 ± 0.4%; LDH release cytotoxicity (0.0955 µM): -2.14 ± 0.16%; LDH release cytotoxicity (0.301998 µM): -0.462 ± 0.4%; LDH release cytotoxicity (0.955 µM): -1.31 ± 0.4%; LDH release cytotoxicity (3.01998 µM): -1.93 ± 0.38%; LDH release cytotoxicity (9.55 µM): -1.78 ± 2%; LDH release cytotoxicity (30.1998 µM): -0.387 ± 0.52%; LDH release cytotoxicity (95.5 µM): 1.42 ± 0.46%
CC1(C)C(C=C(Cl)Cl)C1C(=O)OCc1cccc(Oc2ccccc2)c1 (stereo unspecified) [Permethrin]	-0.121 ± 0.81	-0.859 ± 2	-0.0615 ± 0.15	-1.15 ± 0.33	-1.16 ± 0.27	-1.02 ± 1	-1.28 ± 0.3	-0.44 ± 0.19	
c1ccc2c(c1)ccc1ccccc12 [Phenanthrene]	-0.492 ± 0.39	-0.112 ± 0.47	-1.07 ± 0.35	-1.03 ± 0.62	-1.55 ± 0.095	-0.467 ± 0.087	-0.00782 ± 0.7	0.23 ± 0.29	
CCC1(c2ccccc2)C(=O)N=C(O)NC1=O (stereo unspecified) [Phenobarbital sodium]	-1.03 ± 0.11	-0.9 ± 0.78	-1.41 ± 0.58	-0.43 ± 0.71	-0.289 ± 0.44	-0.0423 ± 0.88	0.694 ± 0.48	1.83 ± 0.84	
Oc1ccccc1 [Phenol]	-1.29 ± 0.31	-1.84 ± 0.82	-1.69 ± 0.2	-1.85 ± 0.26	-1.67 ± 0.035	-1.64 ± 0.055	-1.18 ± 0.073	0.202 ± 0.087	
